Assay results taken from patent publication US6992169B2, “Carrier based drug delivery system” (Cyclacel Limited, priority 1998, dated 2006).

Experiments:
HaCaT cells = test: In vitro cytotoxic activity, inhibition of cell proliferation, ATP bioluminescence (ViaLight); format: cell-based, human
Description: (§1) This compound (abbreviated ‘MTX-Pen’ in the tables below) was evaluated for its ability to inhibit cell proliferation of normal (immortalised) human cells (HaCaT cells, Tables 1 & 2) and a human colorectal cancer cell line (HT29, Table 3).
(§2) Assay procedure—Cells were seeded into 96-well plates at 2,500 cells/well in DMEM with 10% FCS and antibiotics. After overnight incubation, test compound dilutions in cell medium were prepared and were added to the cells. Samples were taken 1, 2, 3, and 4 days after compound addition. Nucleotide Releasing Reagent (LumiTech ViaLight kit) was added in order to lyse the cells and release ATP. After incubation at room temperature (5 min), the mixtures were transferred to opaque 96-well plates and stored at −20° C. until analysis. After loading plates into a luminometer (Lucy 1, Labtech International), ATP Monitoring Reagent (20 μL/well, LumiTech ViaLight kit) was added to each well successively and light intensity was measured immediately. Six readings were taken per sample. Each assay point was established using six replicates and appropriate controls. […] Statistically significant results in the tables below are printed in bold face.
(§3) This compound (abbreviated ‘MTX-Pen’ in tables below) was evaluated for its ability to inhibit cell proliferation of normal (immortalised) human cells (HaCaT cells, Tables 1 & 2) and a human colorectal cancer cell line (HT29, Table 3).
(§4) Assay procedure—Cells were seeded into 96-well plates at 2,500 cells/well in DMEM with 10% foetal calf serum and antibiotics. After overnight incubation, test compound dilutions in cell medium were prepared and were added to the cells. Samples were taken 1, 2, 3, and 4 days after compound addition. Nucleotide Releasing Reagent (LumiTech ViaLight kit) was added in order to lyse the cells and release ATP. After incubation at room temperature (5 min), the mixtures were transferred to opaque 96-well plates and stored at −20° C. until analysis. After loading plates into a luminometer (Lucy 1, Labtech International), ATP Monitoring Reagent ([…], LumiTech ViaLight kit) was added to each well successively and light intensity was measured immediately. Six readings were taken per sample. Each assay point was established using six replicates and appropriate controls.

HT29 = test: as above; format: cell-based, human
Description: as §1, §2, §3, §4

[1] = Table 1, HaCaT, Dose 0.2 μM, Day 1
[2] = Table 1, HaCaT, Dose 0.2 μM, Day 2
[3] = Table 1, HaCaT, Dose 0.2 μM, Day 3
[4] = Table 1, HaCaT, Dose 0.2 μM, Day 4
[5] = Table 1, HaCaT, Dose 0.5 μM, Day 1
[6] = Table 1, HaCaT, Dose 0.5 μM, Day 2
[7] = Table 1, HaCaT, Dose 0.5 μM, Day 3
[8] = Table 1, HaCaT, Dose 0.5 μM, Day 4
[9] = Table 1, HaCaT, Dose 1.5 μM, Day 1
[10] = Table 1, HaCaT, Dose 1.5 μM, Day 2
[11] = Table 1, HaCaT, Dose 1.5 μM, Day 3
[12] = Table 1, HaCaT, Dose 1.5 μM, Day 4
[13] = Table 1, HaCaT, Dose 4.4 μM, Day 1
[14] = Table 1, HaCaT, Dose 4.4 μM, Day 2
[15] = Table 1, HaCaT, Dose 4.4 μM, Day 3
[16] = Table 1, HaCaT, Dose 4.4 μM, Day 4
[17] = Table 1, HaCaT, Dose 13.3 μM, Day 1
[18] = Table 1, HaCaT, Dose 13.3 μM, Day 2
[19] = Table 1, HaCaT, Dose 13.3 μM, Day 3
[20] = Table 1, HaCaT, Dose 13.3 μM, Day 4
[21] = Table 1, HaCaT, Dose 40.0 μM, Day 1
[22] = Table 1, HaCaT, Dose 40.0 μM, Day 2
[23] = Table 1, HaCaT, Dose 40.0 μM, Day 3
[24] = Table 1, HaCaT, Dose 40.0 μM, Day 4

## CN(Cc1cnc2nc(N)nc(N)c2n1)c1ccc(C(=O)N[C@@H](CCC(=O)O)C(=O)O)cc1 [MTX, methotrexate]
HaCaT cells; [1]
  % Cell Death: 7%
HaCaT cells; [2]
  % Cell Death: 11%
HaCaT cells; [3]
  % Cell Death: 79%
HaCaT cells; [4]
  % Cell Death: 93%
HaCaT cells; [5]
  % Cell Death: −4%
HaCaT cells; [6]
  % Cell Death: 31%
HaCaT cells; [7]
  % Cell Death: 75%
HaCaT cells; [8]
  % Cell Death: 93%
HaCaT cells; [9]
  % Cell Death: 13%
HaCaT cells; [10]
  % Cell Death: 31%
HaCaT cells; [11]
  % Cell Death: 77%
HaCaT cells; [12]
  % Cell Death: 94%
HaCaT cells; [13]
  % Cell Death: 4%
HaCaT cells; [14]
  % Cell Death: 24%
HaCaT cells; [15]
  % Cell Death: 77%
HaCaT cells; [16]
  % Cell Death: 93%
HaCaT cells; [17]
  % Cell Death: 22%
HaCaT cells; [18]
  % Cell Death: 35%
HaCaT cells; [19]
  % Cell Death: 82%
HaCaT cells; [20]
  % Cell Death: 92%
HaCaT cells; [21]
  % Cell Death: 4%
HaCaT cells; [22]
  % Cell Death: 15%
HaCaT cells; [23]
  % Cell Death: 79%
HaCaT cells; [24]
  % Cell Death: 92%
HaCaT cells; Table 2, HaCaT, Dose 0.1 μM, Day 1
  % Cell Death: 19%
HaCaT cells; Table 2, HaCaT, Dose 0.1 μM, Day 2
  % Cell Death: 7%
HaCaT cells; Table 2, HaCaT, Dose 0.1 μM, Day 3
  % Cell Death: 45%
HaCaT cells; Table 2, HaCaT, Dose 0.1 μM, Day 4
  % Cell Death: 65%
HaCaT cells; Table 2, HaCaT, Dose 0.2 μM, Day 1
  % Cell Death: 3%
HaCaT cells; Table 2, HaCaT, Dose 0.2 μM, Day 2
  % Cell Death: 41%
HaCaT cells; Table 2, HaCaT, Dose 0.2 μM, Day 3
  % Cell Death: 94%
HaCaT cells; Table 2, HaCaT, Dose 0.2 μM, Day 4
  % Cell Death: 86%
HaCaT cells; Table 2, HaCaT, Dose 0.5 μM, Day 1
  % Cell Death: 0%
HaCaT cells; Table 2, HaCaT, Dose 0.5 μM, Day 2
  % Cell Death: 59%
HaCaT cells; Table 2, HaCaT, Dose 0.5 μM, Day 3
  % Cell Death: 96%
HaCaT cells; Table 2, HaCaT, Dose 0.5 μM, Day 4
  % Cell Death: 91%
HaCaT cells; Table 2, HaCaT, Dose 1.5 μM, Day 1
  % Cell Death: 14%
HaCaT cells; Table 2, HaCaT, Dose 1.5 μM, Day 2
  % Cell Death: 67%
HaCaT cells; Table 2, HaCaT, Dose 1.5 μM, Day 3
  % Cell Death: 96%
HaCaT cells; Table 2, HaCaT, Dose 1.5 μM, Day 4
  % Cell Death: 91%
HaCaT cells; Table 2, HaCaT, Dose 4.4 μM, Day 1
  % Cell Death: 21%
HaCaT cells; Table 2, HaCaT, Dose 4.4 μM, Day 2
  % Cell Death: 70%
HaCaT cells; Table 2, HaCaT, Dose 4.4 μM, Day 3
  % Cell Death: 97%
HaCaT cells; Table 2, HaCaT, Dose 4.4 μM, Day 4
  % Cell Death: 92%
HT29; Table 3, HT 29, Dose 0.1 μM, Day 1
  % Cell Death: 6%
HT29; Table 3, HT 29, Dose 0.1 μM, Day 2
  % Cell Death: −17%
HT29; Table 3, HT 29, Dose 0.1 μM, Day 3
  % Cell Death: 52%
HT29; Table 3, HT 29, Dose 0.1 μM, Day 4
  % Cell Death: 84%
HT29; Table 3, HT 29, Dose 0.2 μM, Day 1
  % Cell Death: 10%
HT29; Table 3, HT 29, Dose 0.2 μM, Day 2
  % Cell Death: −5%
HT29; Table 3, HT 29, Dose 0.2 μM, Day 3
  % Cell Death: 54%
HT29; Table 3, HT 29, Dose 0.2 μM, Day 4
  % Cell Death: 85%
HT29; Table 3, HT 29, Dose 0.5 μM, Day 1
  % Cell Death: 15%
HT29; Table 3, HT 29, Dose 0.5 μM, Day 2
  % Cell Death: −12%
HT29; Table 3, HT 29, Dose 0.5 μM, Day 3
  % Cell Death: 52%
HT29; Table 3, HT 29, Dose 0.5 μM, Day 4
  % Cell Death: 88%
HT29; Table 3, HT 29, Dose 1.5 μM, Day 1
  % Cell Death: 17%
HT29; Table 3, HT 29, Dose 1.5 μM, Day 2
  % Cell Death: −5%
HT29; Table 3, HT 29, Dose 1.5 μM, Day 3
  % Cell Death: 48%
HT29; Table 3, HT 29, Dose 1.5 μM, Day 4
  % Cell Death: 84%
HT29; Table 3, HT 29, Dose 4.4 μM, Day 1
  % Cell Death: −14%
HT29; Table 3, HT 29, Dose 4.4 μM, Day 2
  % Cell Death: −4%
HT29; Table 3, HT 29, Dose 4.4 μM, Day 3
  % Cell Death: 58%
HT29; Table 3, HT 29, Dose 4.4 μM, Day 4
  % Cell Death: 86%

## H-Ala-Arg-Gln-Ile-Lys-Ile-Trp-Phe-Gln-Asn-Arg-Arg-Met-Lys-Trp-Lys-Lys-OH (H-ARQIKIWFQNRRMKWKK-OH) [Pen, the free vector]
HaCaT cells; [1]
  % Cell Death: 26%
HaCaT cells; [2]
  % Cell Death: 0%
HaCaT cells; [3]
  % Cell Death: −3%
HaCaT cells; [4]
  % Cell Death: 21%
HaCaT cells; [5]
  % Cell Death: 6%
HaCaT cells; [6]
  % Cell Death: −6%
HaCaT cells; [7]
  % Cell Death: −29%
HaCaT cells; [8]
  % Cell Death: −26%
HaCaT cells; [9]
  % Cell Death: 16%
HaCaT cells; [10]
  % Cell Death: −31%
HaCaT cells; [11]
  % Cell Death: 2%
HaCaT cells; [12]
  % Cell Death: −14%
HaCaT cells; [13]
  % Cell Death: 8%
HaCaT cells; [14]
  % Cell Death: −4%
HaCaT cells; [15]
  % Cell Death: −1%
HaCaT cells; [16]
  % Cell Death: 10%
HaCaT cells; [17]
  % Cell Death: 18%
HaCaT cells; [18]
  % Cell Death: 0%
HaCaT cells; [19]
  % Cell Death: −17%
HaCaT cells; [20]
  % Cell Death: −6%
HaCaT cells; [21]
  % Cell Death: 16%
HaCaT cells; [22]
  % Cell Death: −22%
HaCaT cells; [23]
  % Cell Death: 5%
HaCaT cells; [24]
  % Cell Death: 12%
